Test results from patent publication US8435976B2, “4-substituted pyridin-3-yl-carboxamide compounds and methods of use” (F. Hoffmann-La Roche, priority 2009, dated 2013).
Read-outs that look alike come from different tables or passages of the source.

Legend:
BaF3 PIM1 cells = BaF3 PIM1 cells (Homo sapiens, UniProt P11309); assay: BaF3 PIM1 cell proliferation (Cell Titer Glo); format: cell-based
MM1.S cells = assay: MM1.S cell proliferation, 72 hours (Cell Titer Glo); format: cell-based; details: Homo sapiens
Outline: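 BaF3 parental cells (2 k/well, with 2 ng/mL mIL-3) were treated overnight, and MM1.S cells (10 k/well) were treated for 72 h at 37 °C. Viability was read by CellTiter-Glo luminescence. IC50/EC50 values were calculated from the luminescence data.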

BaF3 parental cells = assay: BaF3 parental cell proliferation (Cell Titer Glo); format: cell-based; details: Mus musculus, Table 3
Description: BaF3 parental line was obtained from the DSMZ repository. BaF3 lines transfected with PIM1 or PIM2 were generated. Mouse IL-3 was purchased from R&D Systems. G418 was purchased from Clontech. Media for BaF3 parental line contained RPMI, 10% FBS, 2 mM L-Glutamine, 2 ng/mL mIL-3. Media for BaF3 PIM1 & 2 lines contained RPMI, 10% FBS, 2 mM L-Glutamine, […]. Media for MM1.S line contained RPMI, 10% FBS, 2 mM L-Glutamine.
BaF3 parental cells, BaF3 PIM1 cells, BaF3 PIM2 cells, and MM1.S cells were seeded at 2 k/well, 5 k/well, 5 k/well, and 10 k/well respectively, in a 384-well plate, at 45 μL/well. Test compound was added at 5 μL/well. BaF3 cells (parental and transfected) were incubated overnight, while MM1.S cells were incubated for 72 hours at 37° C., 5% CO2. Cell Titer Glo Reagent (Promega) was added at 50 μL/well, the plates were incubated for 30 minutes, and their luminescence read on an HT Analyst. IC50/EC50 values for the test compound were calculated.

EOL-1 = EOL-1 cell assay; format: cell-based; details: Homo sapiens, EOL1; Table 3
[1] = system: bone marrow aspirate samples from multiple myeloma patients; assay: Primary cancer cell isolates from bone marrow aspirates, apoptosis; format: cell-based, human; details: 0.3 or 1.0 micromolar; two of four cases
Description: Shown in FIG. 2 are a summary of Combination Index values for Compound 3 in combination with different agents. The values shown were calculated at the ED50 of the dose response curves which were similar in nature to those exemplified in FIG. 1. Each dot in the plot represents the test results obtained with a different multiple myeloma cell line with a different combination of test agents, including Compound 3 plus a second agent as labeled on the abscissa. The horizontal line on the plot itself indicates the mean of all CI values for a given test agent. Combinations of Compound 3 with clinical standard of care chemotherapeutic agents including dexamethasone, lenalidomide, bortezomib, and melphalan produced variable results wherein CI values between about 0.1 and about 1 were obtained, with means generally greater than about 0.5. Compared to these clinically active agents, unexpectedly uniform and unexpectedly potent combination test results were obtained for Compound 3 in combination with Formula A, in which the majority of calculated CI values were less than about 0.2 and the mean across all cancer cell lines tested was about 0.2. In addition to these findings, bone marrow aspirate samples from multiple myeloma patients […] to test Formula A and Compound 3 singly and in combination on these primary cancer cell isolates.

[2] = system: multiple myeloma cell line KMS11; assay: Cell Titer Glo proliferation and survival assay, KMS11 and other multiple myeloma cell lines; format: cell-based; details: Homo sapiens, KMS-11; single agent; ten multiple myeloma cell lines tested; read-out: IC50 against myeloma cell lines, single agent
From the text: The results obtained here are representative of a total of ten multiple myeloma cell lines tested.

[3] = system: prostate cancer cell line PC3; assay: Cell Titer Glo proliferation and survival assay, PC3; format: cell-based; details: PC3, FIG. 5
From the text: The results obtained here are representative of a subset of prostate cell lines tested.

[4] = system: RPMI 8226.x1 multiple myeloma xenografts; assay: RPMI 8226.x1 multiple myeloma xenograft; format: in vivo, SCID Beige mice
Description: (§1) The efficacy of the combinations of the invention may be measured in vivo by implanting allografts or xenografts of cancer cells in rodents and treating the tumor-bearing animals with the combinations. Variable results are to be expected depending on the cell line, the presence or absence of certain mutations in the tumor cells, the sequence of administration of a formula I compound and chemotherapeutic agent, dosing regimen, and other factors. Subject mice were treated with drug(s) or control (Vehicle) and monitored over several weeks or more to measure the time to tumor doubling, log cell kill, and tumor inhibition.
Dosing of all cohorts commenced on Day 0 when the mean tumor volume of all cohorts was between about 100 to 200 cubic millimeters.

[5] = system: syngeneic A20 lymphoma tumors; assay: Syngeneic A20 lymphoma tumor model; format: in vivo, Balb/c mice; details: Compound 3 25 and 50 mg/kg or Formula A 75 mg/kg po qd x21
Description: The efficacy of the combinations of the invention may be measured in vivo by implanting allografts or xenografts of cancer cells in rodents and treating the tumor-bearing animals with the combinations. […] Subject mice were treated with drug(s) or control (Vehicle) and monitored over several weeks or more to measure the time to tumor doubling, log cell kill, and tumor inhibition.
Dosing of all cohorts commenced on Day 0 when the mean tumor volume of all cohorts was between […]. […] At the conclusion of this study, femurs were collected and histological analysis of the bone marrow was conducted, and peripheral blood was collected for determination of blood cell counts.

[6] = system: MM1.s multiple myeloma xenografts; assay: MM1.s multiple myeloma xenograft; format: in vivo, SCID mice; details: Compound 3 50 mg/kg po qd, day 18 vs vehicle
Description: as §1
Dosing of all cohorts commenced on Day 0 when the mean tumor volume of all cohorts was between about 200 to 300 cubic millimeters. […] Formula A was tested at as a single agent at a single dose level of 75 mg/kg for which a lesser TGI was obtained at day 18.

[7] = system: OPM-2 multiple myeloma xenografts; assay: OPM-2 multiple myeloma xenograft; format: in vivo, SCID Beige mice; details: Compound 3 50 mg/kg po qd x21, day 23 vs vehicle
Description: as §1
Dosing of all cohorts commenced on Day 0 when the mean tumor volume of all cohorts was between about 100 to 200 cubic millimeters. […] Formula A was tested at as a single agent at a single dose level of 75 mg/kg for which a similar TGI was obtained at day 23.

Chain of BaF3 PIM1 cells (P11309 whole entry, change not shown): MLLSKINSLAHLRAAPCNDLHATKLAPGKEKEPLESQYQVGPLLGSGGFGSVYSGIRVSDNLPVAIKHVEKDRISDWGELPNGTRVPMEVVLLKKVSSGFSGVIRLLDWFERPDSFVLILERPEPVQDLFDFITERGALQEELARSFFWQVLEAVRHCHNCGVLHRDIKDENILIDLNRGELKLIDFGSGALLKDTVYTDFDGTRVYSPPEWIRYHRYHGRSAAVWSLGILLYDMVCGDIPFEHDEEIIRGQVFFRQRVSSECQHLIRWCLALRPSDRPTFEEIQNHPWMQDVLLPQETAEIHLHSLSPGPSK

- GI50 (BaF3 PIM1 cells; Table 3, read-out: BaF3-Pim1): 10 nM
- GI50 (BaF3 PIM1 cells; incubated overnight, read-out: Prolif BaF3_PIM1 (IC50)): 13.5 nM
- EC50 (MM1.S cells; 72 hours, read-out: Prolif MM1S ATP (EC50)): 49.7 nM
- EC50 (MM1.S cells; Table 3, read-out: MM1.s): 200 nM
- IC50 (EOL-1): 10 nM
Structure (SMILES): Nc1sc(-c2c(F)cccc2F)nc1C(=O)Nc1cnccc1N1CCC[C@H](N)C1 [Example 3, (S)-5-amino-N-(4-(3-aminopiperidin-1-yl)pyridin-3-yl)-2-(2,6-difluorophenyl)thiazole-4-carboxamide]
- IC50 (BaF3 parental cells): 8000 nM
- activity on primary cancer cell isolates [1]: only limited single agent activity
- IC50 [2]: 100 to 500 nM
- single agent activity, PC3 [3]: little activity
- effect on tumor growth at the lowest dose ([4]; Compound 3 5 mg/kg po qd x21): trend toward accelerated tumor growth, though this trend was not statistically significant
- tumor growth inhibition (TGI) ([4]; Compound 3 50 mg/kg po qd x21, day 27 vs vehicle): about 70%
- effect on tumor growth, single agents [5]: no significant effect on tumor growth
- tumor growth inhibition (TGI) [6]: about 60%
- tumor growth inhibition (TGI) [7]: about 45%
